Where two headings read alike, the source gives them in different places.
Biological target: T1, ALK (Homo sapiens, UniProt Q9UM73)
T1 construct: host or cells: baculovirus expression system
Experiment: ALK Kinase Assay (ELISA/TRF, PLC-γ substrate)
Assay type: biochemical
Settings: read-out: ALK Potency
Protocol: Briefly, each 96-well plate was coated with […] of 10 μg/mL substrate (phospholipase C-γ) in Tris-buffered saline (TBS). […] The reaction was initiated by adding enzyme (30 ng/ml ALK) and was allowed to proceed at 37° C. for 15 minutes. Detection of the phosphorylated product was performed by adding 100 μl/well of Eu—N1 labeled PT66 antibody (Perkin Elmer # AD0041).
Data analysis was performed using ActivityBase (IDBS, Guilford, UK). IC50 values were calculated by plotting percent inhibition versus log10 of the concentration of compound and fitting to the nonlinear regression sigmoidal dose-response (variable slope) equation in XLFit (IDBS, Guilford, UK).

[1] = ALK kinase inhibition, 1 μM ATP

T1 sequence (Q9UM73 19-1620): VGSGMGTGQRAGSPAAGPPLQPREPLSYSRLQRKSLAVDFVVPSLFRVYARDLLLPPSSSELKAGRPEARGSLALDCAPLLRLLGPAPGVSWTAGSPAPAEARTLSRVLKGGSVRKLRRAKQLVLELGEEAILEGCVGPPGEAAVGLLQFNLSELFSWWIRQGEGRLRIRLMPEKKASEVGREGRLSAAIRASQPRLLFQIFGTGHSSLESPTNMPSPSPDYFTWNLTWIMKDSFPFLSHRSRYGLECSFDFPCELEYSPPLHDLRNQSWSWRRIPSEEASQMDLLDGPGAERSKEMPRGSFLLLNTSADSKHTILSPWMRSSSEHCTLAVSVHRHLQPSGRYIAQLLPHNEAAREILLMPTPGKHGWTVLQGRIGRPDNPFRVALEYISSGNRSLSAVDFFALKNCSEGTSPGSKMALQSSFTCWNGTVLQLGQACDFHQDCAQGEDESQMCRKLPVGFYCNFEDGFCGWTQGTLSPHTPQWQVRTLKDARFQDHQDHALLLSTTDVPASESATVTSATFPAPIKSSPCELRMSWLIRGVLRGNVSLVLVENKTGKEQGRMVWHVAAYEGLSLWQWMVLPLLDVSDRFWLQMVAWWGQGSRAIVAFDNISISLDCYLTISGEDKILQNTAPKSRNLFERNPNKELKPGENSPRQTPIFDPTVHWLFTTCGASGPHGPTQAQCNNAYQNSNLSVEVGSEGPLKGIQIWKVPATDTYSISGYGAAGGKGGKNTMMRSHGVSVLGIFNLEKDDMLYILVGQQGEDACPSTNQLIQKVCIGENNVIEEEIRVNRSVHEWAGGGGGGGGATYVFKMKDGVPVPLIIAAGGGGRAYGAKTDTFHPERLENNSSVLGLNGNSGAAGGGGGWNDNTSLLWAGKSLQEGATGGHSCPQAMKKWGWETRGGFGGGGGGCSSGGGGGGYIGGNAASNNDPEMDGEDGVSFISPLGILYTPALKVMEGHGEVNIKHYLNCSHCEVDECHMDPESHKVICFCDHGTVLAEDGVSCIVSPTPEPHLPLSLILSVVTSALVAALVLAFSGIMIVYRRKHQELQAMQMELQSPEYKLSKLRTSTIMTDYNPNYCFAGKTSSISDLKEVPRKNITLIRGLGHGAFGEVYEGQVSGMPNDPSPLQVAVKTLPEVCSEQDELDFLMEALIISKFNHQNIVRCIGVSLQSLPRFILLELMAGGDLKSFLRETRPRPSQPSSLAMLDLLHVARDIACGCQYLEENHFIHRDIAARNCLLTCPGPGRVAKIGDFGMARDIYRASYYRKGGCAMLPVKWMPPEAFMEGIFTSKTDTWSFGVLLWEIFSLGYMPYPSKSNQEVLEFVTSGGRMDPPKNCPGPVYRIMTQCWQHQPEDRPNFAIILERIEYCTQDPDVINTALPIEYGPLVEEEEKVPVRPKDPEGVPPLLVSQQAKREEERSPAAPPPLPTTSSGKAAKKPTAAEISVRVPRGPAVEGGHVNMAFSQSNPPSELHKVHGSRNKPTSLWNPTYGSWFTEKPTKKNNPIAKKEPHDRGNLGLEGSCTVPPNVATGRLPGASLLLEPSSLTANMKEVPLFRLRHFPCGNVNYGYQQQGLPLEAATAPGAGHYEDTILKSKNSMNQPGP

| Compound | IC50 [1] [nM] | IC50 (ALK Kinase Inhibition) [nM] |
| --- | --- | --- |
| Cc1cc2cnc(Nc3ccc(N4CCN(C)CC4)cc3)nn2c1-c1cccc(CCC#N)c1 [Example 1160, 3-(3-{6-Methyl-2-[4-(4-methyl-piperazin-1-yl)-phenylamino]-pyrrolo[2,1-f][1,2,4]triazin-7-yl}-phenyl)-propionitrile] | < 100 |  |
| COc1ccc(-c2ccc3cnc(Nc4ccc(N5CCN(C)CC5)c(Cl)c4)nn23)cn1 [Example 1419, [3-Chloro-4-(4-methyl-piperazin-1-yl)-phenyl]-[7-(6-methoxy-pyridin-3-yl)-pyrrolo[2,1-f][1,2,4]triazin-2-yl]-amine] |  | 100 to 1000 |
| COc1cc(N2CCN(C[C@H](O)CO)CC2)ccc1Nc1ncc2ccc(-c3cc(Cl)ccc3OC)n2n1 [Example 759, (S)-3-(4-{4-[7-(5-Chloro-2-methoxy-phenyl)-pyrrolo[2,1-f][1,2,4]triazin-2-ylamino]-3-methoxy-phenyl}-piperazin-1-yl)-propane-1,2-diol] | < 100 |  |
| CN1CCN(c2ccc(Nc3ncc4ccc(-c5ccccc5N(C)S(C)(=O)=O)n4n3)c(Cl)c2)CC1 [Example 507, N-(2-{2-[2-Chloro-4-(4-methyl-piperazin-1-yl)-phenylamino]-pyrrolo[2,1-f][1,2,4]triazin-7-yl}-phenyl)-N-methyl-methanesulfonamide] | < 100 |  |
| Cc1cc(-c2ccccc2N(C)S(C)(=O)=O)n2nc(Nc3ccc(C4CCN(CC(N)=O)CC4)cc3)ncc12 [Example 1261, 2-[4-(4-{7-[2-(Methanesulfonyl-methyl-amino)-phenyl]-5-methyl-pyrrolo[2,1-f][1,2,4]triazin-2-ylamino}-phenyl)-piperidin-1-yl]-acetamide] | < 100 |  |
| CS(=O)(=O)N1Cc2cccc(-c3ccc4cnc(Nc5ccc(C6CCN(CC(N)=O)CC6)cc5)nn34)c2C1 [Example 579, 2-(4-{4-[7-(2-Methanesulfonyl-2,3-dihydro-1H-isoindol-4-yl)-pyrrolo[2,1-f][1,2,4]triazin-2-ylamino]-phenyl}-piperidin-1-yl)-acetamide] | 1000 to 10000 |  |
| COc1ccccc1-c1ccc2cnc(Nc3ccc(N4CCN(C)CC4)c(F)c3)nn12 [Example 90, [3-Fluoro-4-(4-methyl-piperazin-1-yl)-phenyl]-[7-(2-methoxy-phenyl)-pyrrolo[2,1-f][1,2,4]triazin-2-yl]-amine] |  | < 100 |
| COc1cc(N2CCCC(N3CCN(CCO)CC3)C2)ccc1Nc1ncc2ccc(-c3ccccc3OC)n2n1 (stereo not drawn) [Example 1443, 2-[4-(1-{3-Methoxy-4-[7-(2-methoxy-phenyl)-pyrrolo[2,1-f][1,2,4]triazin-2-ylamino]-phenyl}-piperidin-3-yl)-piperazin-1-yl]-ethanol] |  | < 100 |
| COc1ccccc1-c1ccc2cnc(Nc3ccc(N4CCN(C[C@H](C)O)CC4)c(F)c3)nn12 [Example 1417, (S)-1-(4-{2-Fluoro-4-[7-(2-methoxy-phenyl)-pyrrolo[2,1-f][1,2,4]triazin-2-ylamino]-phenyl}-piperazin-1-yl)-propan-2-ol] |  | < 100 |
| CCOc1ccccc1-c1ccc2cnc(Nc3ccc(N4CCC(N5CCOCC5)CC4)cc3OC)nn12 [Example 1447, [7-(2-Ethoxy-phenyl)-pyrrolo[2,1-f][1,2,4]triazin-2-yl]-[2-methoxy-4-(4-morpholin-4-yl-piperidin-1-yl)-phenyl]-amine] |  | < 100 |
| COc1cc(N2CCN(C[C@H](O)CO)CC2)ccc1Nc1ncc2ccc(-c3ccccc3OC)n2n1 [Example 760, (S)-3-(4-{3-Methoxy-4-[7-(2-methoxy-phenyl)-pyrrolo[2,1-f][1,2,4]triazin-2-ylamino]-phenyl}-piperazin-1-yl)-propane-1,2-diol] | < 100 |  |
| CN1CCN(c2ccc(Nc3ncc4ccc(-c5cccc(S(=O)(=O)NC(C)(C)C)c5)n4n3)cc2Cl)CC1 [Example 1411, N-tert-Butyl-3-{2-[3-chloro-4-(4-methyl-piperazin-1-yl)-phenylamino]-pyrrolo[2,1-f][1,2,4]triazin-7-yl}-benzenesulfonamide] |  | < 100 |
| CN1CCN(c2ccc(Nc3ncc4ccc(-c5ccccc5N(C)S(C)(=O)=O)n4n3)cc2F)CC1 [Example 1421, N-(2-{2-[3-Fluoro-4-(4-methyl-piperazin-1-yl)-phenylamino]-pyrrolo[2,1-f][1,2,4]triazin-7-yl}-phenyl)-N-methyl-methanesulfonamide] |  | < 100 |
| COc1cc(N2CCC(N3CCNCC3)CC2)ccc1Nc1ncc2ccc(-c3ccccc3OC)n2n1 [Example 537, [7-(2-Methoxy-phenyl)-pyrrolo[2,1-f][1,2,4]triazin-2-yl]-[2-methoxy-4-(4-piperazin-1-yl-piperidin-1-yl)-phenyl]-amine] | < 100 |  |
| COc1cc(N2CCN(C[C@@H](O)CO)CC2)ccc1Nc1ncc2ccc(-c3ccccc3OC)n2n1 [Example 758, (R)-3-(4-{3-Methoxy-4-[7-(2-methoxy-phenyl)-pyrrolo[2,1-f][1,2,4]triazin-2-ylamino]-phenyl}-piperazin-1-yl)-propane-1,2-diol] | < 100 |  |
| COc1cc2c(cc1Nc1ncc3ccc(-c4ccccc4OC)n3n1)CCCC(N1CCOCC1)C2 (stereo not drawn) [Example 992, (3-Methoxy-6-morpholin-4-yl-6,7,8,9-tetrahydro-5H-benzocyclohepten-2-yl)-[7-(2-methoxy-phenyl)-pyrrolo[2,1-f][1,2,4]triazin-2-yl]-amine] | < 100 |  |
| COc1cc(N2CCC(N3CCOCC3)CC2)ccc1Nc1ncc2ccc(-c3cccc(NS(C)(=O)=O)c3)n2n1 [Example 1446, N-(3-{2-[2-Methoxy-4-(4-morpholin-4-yl-piperidin-1-yl)-phenylamino]-pyrrolo[2,1-f][1,2,4]triazin-7-yl}-phenyl)-methanesulfonamide] |  | < 100 |
| COc1ccc(C2CCN(C)CC2)cc1Nc1ncc2ccc(-c3ccccc3OC)n2n1 [Example 770, [2-Methoxy-5-(1-methyl-piperidin-4-yl)-phenyl]-[7-(2-methoxy-phenyl)-pyrrolo[2,1-f][1,2,4]triazin-2-yl]-amine] | < 100 |  |
| CN1CCN(c2ccc(Nc3ncc4ccc(-c5ccccc5N(C)S(C)(=O)=O)n4n3)cc2)CC1 [Example 627, N-Methyl-N-(2-{2-[4-(4-methyl-piperazin-1-yl)phenylamino]pyrrolo[2,1-f][1,2,4]triazin-7-yl}phenyl)methanesulfonamide] | < 100 |  |
| C[C@H](O)CN1CCN(c2ccc(Nc3ncc4ccc(-c5ccccc5N(C)S(C)(=O)=O)n4n3)cc2F)CC1 [Example 1423, N-[2-(2-{3-Fluoro-4-[4-((S)-2-hydroxy-propyl)-piperazin-1-yl]-phenylamino}-pyrrolo[2,1-f][1,2,4]triazin-7-yl)-phenyl]-N-methyl-methanesulfonamide] |  | < 100 |
| C[C@H](O)CN1CCN(c2ccc(Nc3ncc4ccc(-c5cccc(S(=O)(=O)NC(C)(C)C)c5)n4n3)cc2F)CC1 [Example 1412, N-tert-Butyl-3-(2-{3-fluoro-4-[4-((S)-2-hydroxy-propyl)-piperazin-1-yl]-phenylamino}-pyrrolo[2,1-f][1,2,4]triazin-7-yl)-benzenesulfonamide] |  | < 100 |
| COc1cc(N2CCCN(C[C@H](O)CO)CC2)ccc1Nc1ncc2ccc(-c3ccccc3OC)n2n1 [Example 767, (S)-3-(4-{3-Methoxy-4-[7-(2-methoxy-phenyl)-pyrrolo[2,1-f][1,2,4]triazin-2-ylamino]-phenyl}-[1,4]diazepan-1-yl)-propane-1,2-diol] | < 100 |  |
| COc1cc(N2CCCC(N3CCNCC3)C2)ccc1Nc1ncc2ccc(-c3ccccc3OC)n2n1 (stereo not drawn) [Example 1448, [7-(2-Methoxy-phenyl)-pyrrolo[2,1-f][1,2,4]triazin-2-yl]-[2-methoxy-4-(3-piperazin-1-yl-piperidin-1-yl)-phenyl]-amine] |  | < 100 |
| N-tert-Butyl-3-{2-[3-fluoro-4-(4-methyl-piperazin-1-yl)-phenylamino]-pyrrolo[2,1-f][1,2,4]triazin-7-yl}-benzenesulfonamide [Example 1216] | 100 to 1000 |  |
| CN1CCN(c2ccc(Nc3ncc4ccc(-c5cccc(S(=O)(=O)NC(C)(C)C)c5)n4n3)cc2)CC1 [Example 23, N-tert-Butyl-3-{2-[4-(4-methyl-piperazin-1-yl)-phenylamino]-pyrrolo[2,1-f][1,2,4]triazin-7-yl}-benzenesulfonamide] |  | < 100 |
| COc1ccccc1-c1ccc2cnc(Nc3ccc(N4CCN(C)CC4)c(Cl)c3)nn12 [Example 1418, [3-Chloro-4-(4-methyl-piperazin-1-yl)-phenyl]-[7-(2-methoxy-phenyl)-pyrrolo[2,1-f][1,2,4]triazin-2-yl]-amine] |  | < 100 |
| COc1ccccc1-c1ccc2cnc(Nc3ccc(N4CCN(C)CC4)cc3)nn12 [Example 20, [7-(2-Methoxy-phenyl)-pyrrolo[2,1-f][1,2,4]triazin-2-yl]-[4-(4-methyl-piperazin-1-1)-phenyl]-amine] |  | < 100 |
| CN1CCN(c2ccc(Nc3ncc4ccc(-c5ccccc5N(C)S(C)(=O)=O)n4n3)cc2Cl)CC1 [Example 1424, N-(2-{2-[3-Chloro-4-(4-methyl-piperazin-1-yl)-phenylamino]-pyrrolo[2,1-f][1,2,4]triazin-7-yl}-phenyl)-N-methyl-methanesulfonamide] |  | < 100 |
| COc1cc(N2CCC(N3CCN(C(C)=O)CC3)CC2)ccc1Nc1ncc2ccc(-c3ccccc3OC)n2n1 [Example 536, 1-[4-(1-{3-Methoxy-4-[7-(2-methoxy-phenyl)-pyrrolo[2,1-f][1,2,4]triazin-2-ylamino]-phenyl}-piperidin-4-yl)-piperazin-1-yl]-ethanone] | < 100 |  |
| COc1cc(N2CCC(N3CCOCC3)CC2)ccc1Nc1ncc2ccc(-c3cccc(N(C)S(C)(=O)=O)c3)n2n1 [Example 1449, N-(3-{2-[2-Methoxy-4-(4-morpholin-4-yl-piperidin-1-yl)-phenylamino]-pyrrolo[2,1-f][1,2,4]triazin-7-yl}-phenyl)-N-methyl-methanesulfonamide] |  | < 100 |

Source: US8471005B2 (Cephalon, Inc., priority 2008, dated 2013)
